Data on four molecules can be found in US7250511B2, “Process for the preparation of cyclopenta[g]quinazoline derivatives” (BTG International Limited, priority 2001, dated 2007).

In turn, `C#CCN(c1ccc(C(=O)O)cc1)C1CCc2cc3nc(C)[nH]c(=O)c3cc21` (racemic) [Example 1, 4{N-[(6RS)-2-Methyl-4-oxo-3,4,7,8-tetrahydro-6H-cyclopenta[g]quinazolin-6-yl]-N-(prop-2-ynyl)amino}benzoic acid] showed a melting point of 305 to 307 °C. `C#CCN(c1ccc(C(=O)N[C@@H](CCC(=O)N[C@H](CCC(=O)O)C(=O)O)C(=O)O)cc1)C1CCc2cc3nc(COC)[nH]c(=O)c3cc21` (mixture of isomers) [Example 2, N-{N-{4-[N-((6RS)-2-Methoxymethyl4oxo-3,4,7,8-tetrahydro-6H-cyclopent[g]quinazolin-6-yl)-N-(prop-2-ynyl)amino]-benzoyl}-L-γ-glutamyl}-D-glutamic acid] had a melting point of 150 to 155 °C. For the molecule `C#CCN(c1ccc(C(=O)N[C@@H](CCC(=O)N[C@H](CCC(=O)O)C(=O)O)C(=O)O)c(F)c1)C1CCc2cc3nc(C)[nH]c(=O)c3cc21` (mixture of isomers) [Example 4, N-{N-{4[N-((6RS)-2-methyl-4-oxo-3,4,7,8-tetra-hydro-6H-cyclopental[g]quinazolin-6-yl)-N-(prop2-ynyl)amino]-2-fluoro-benzoyl}-L-γ-glutamyl}-D-glutamic acid], the melting point was 175 °C (dec.). `C#CCN(c1ccc(C(=O)N[C@@H](CCC(=O)N(C)[C@@H](CCC(=O)O)C(=O)O)C(=O)O)cc1)C1CCc2cc3nc(CO)[nH]c(=O)c3cc21` (mixture of isomers) [Example 5, N-{N-{4-[N-((6RS)-2-hydroxymethyl-4-oxo-3,4,7,8-tetrahydro-6H-cyclopenta[g]quinazolin-6yl)-N-(prop-2-ynyl)amino]-benzoyl}-L-γ-glutamyl}-N-methyl-L-glutamic acid]: the melting point is > 165 °C (dec.).

As usually defined, the melting point is the temperature of the solid-liquid transition.
